Tests used:
caspase-3 = assay: Western blot for cleaved caspase-3 in JJN-3 cells; format: cell-based, human; conditions: JJN-3, 10 μM, 24 or 48 h
Protocol: JJN-3 cells were cultured for 24 or 48 hours with a control peptide (penetratin) or P7-A4-Pen, both at 10 μM. Cells were then lysed and lysates analysed by Western blot for cleaved caspase-3. Presence of cleaved (i.e. activated) caspase-3 is an indicator of apoptotic pathway activation. Cleaved caspase 3 was detected at high levels in the cells treated with P7-A4-Pen for 24 or 48 hours, and only at much lower levels in the cells treated with the control peptide. β-tubulin was detected as a loading control.
To investigate the mechanism of cytotoxicity mediated by the anti-proliferative peptides of the invention, the effect of the peptide P7-A4-Pen on caspase-3 activation in JJN-3 multiple myeloma cells was investigated. Caspase-3 is a pro-apoptotic caspase which is activated by cleavage by upstream caspases 8, 9 and 10 in response to cell death stimuli. Activated, cleaved caspase-3 cleaves and activates caspases 6 and 7, which induce apoptosis. JJN-3 multiple myeloma cells were incubated with 10 μM P7-A4-Pen or Penetratin control for 24 or 48 hours, lysed and analysed by Western blot to investigate caspase-3 activation (by blotting cleaved caspase-3).

primary human monocytes = assay: Confocal analysis of E. coli particle uptake by primary human monocytes; format: cell-based; conditions: 15 μM, level comparable with CytoD treated cells
Protocol: Cells were pre-incubated with Pen or P7-Pen peptides, followed by addition of Alexa Fluor 488-labeled bioparticles for the times indicated (15, 30 or 45 min). Fluorescent bacteria particles were counted by spot-detection in Bitplane Imaris imaging software and used to calculate the number of particles per cell. […] Pre-incubation with 3 μM cytochalasin D (CytoD, and inhibitor of actin polymerization) inhibited uptake of E. coli to a similar extent as P7-Pen.
THP-1 cells, THP-1^cherry cells or human PBMC were seeded in 24-well glass-bottom plates (MatTek Corporation), 125,000 cells/well. The THP-1 cells were differentiated into macrophages with 60 ng/ml PMA for 72 h and thereafter rested for 48 h, whereas the PBMC were used the day after isolation. The P7-penatratin peptide or control peptide was added to the cells 30 min before stimulation at 15 μM concentration. If used, 3 μM cytochalasin D (CytoD) was added simultaneously. […] A spot detection mode in the Bitplan Imaris software was used to define individual phagosomes and cells were counted manually. […] Fluorescence voxel intensity of TRAM^cherry at the phagosome is also presented. Statistical significance was calculated in GraphPad Prism by One-way ANOVA Kruskal-Wallis multiple comparison test. […]

TLR2 = assay: Primary human macrophages stimulated with FSL-1: cytokine mRNA, Western blot, IRAK precipitations; format: cell-based; conditions: primary human macrophages (data not shown)
Protocol: Primary human macrophages (PBMC derived, differentiated in media with 10% human serum and M-CSF 20 ng/ml, 7 days) were stimulated with K12 LPS (100 ng/ml), FSL-1 (100 ng/ml) or CL075 (3 μg/ml). […] (B) qPCR for mRNA expression of IFNβ, IL-6, TNF and IL-1β, average for three biological replicates, error bars ±SD.
Primary human macrophages (7 days) were pre-treated with Pen or P7-Pen (15 μM) for 30 min before addition of LPS (100 ng/ml), FSL-1 (100 ng/ml) or CL075 (3 μg/ml). A: Protein expression in lysates for input control. B,C: Precipitations were performed using sheep anti-IRAK4 (B) or anti-IRAK1 (C) polyclonal antibodies covalently bound to magnetic beads.
The effect of P7-Pen on TLR2-mediated pro-inflammatory cytokine expression was investigated.

Substance | caspase-3 cleavage (caspase-3) | uptake of E. coli particles (primary human monocytes) | expression of pro-inflammatory cytokines induced by TLR2/6 agonist FSL-1 (TLR2)
Ac-ITVAASVTLTGRQIKIWFQNRRMKWKK-NH2 [Peptide P7-A4-Pen] | strongly stimulates |  | 
Ac-ITVYASVTLTGRQIKIWFQNRRMKWKK-NH2 [Peptide P7-Pen] |  | inhibited | no effect

— US20230220047A1, “PEPTIDES FOR TREATMENT OF SEPSIS AND CANCER” (NORWEGIAN UNIVERSITY OF SCIENCE AND TECHNOLOGY (NTNU), priority 2020, published 2023)
